Results reported in US20240252488A1 (KOREA RESEARCH INSTITUTE OF CHEMICAL TECHNOLOGY, priority 2020, published 2024).

Experiments:
FADD−/− Jurkat cells = assay: Necroptosis inhibition assay, TNF-α-induced necroptosis (CellTiter-Glo 2.0); format: cell-based, human; conditions: TNF-α 15 ng/mL; for Necroptosis inhibition assay (Rescue %) 1 μM: compound 1 μM; for Necroptosis inhibition assay (Rescue %) 10 μM: compound 10 μM
How it was run: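 FADD−/− Jurkat cells preincubated 30 min at room temperature with compound at 0.1, 1 and 10 μM final, then stimulated with TNF-α (15 ng/mL final) for 20–24 h at 37 °C, 5% CO2. Viability read as ATP luminescence; cytotoxicity and necroptosis inhibition rate calculated from luminescence values.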

MLKL [1] = target: T1, MLKL (Homo sapiens, UniProt Q8NB16); assay: MLKL degradation assay in HepG2 cell line (western blot); format: cell-based; set-up: endogenous in cells; host or cells: HepG2 or HaCaT; conditions: cell line not given; for Degradation assay (Degradation %) 1 μM: compound 1 μM; for Degradation assay (Degradation %) 10 μM: compound 10 μM
T1 sequence (Q8NB16 1-471): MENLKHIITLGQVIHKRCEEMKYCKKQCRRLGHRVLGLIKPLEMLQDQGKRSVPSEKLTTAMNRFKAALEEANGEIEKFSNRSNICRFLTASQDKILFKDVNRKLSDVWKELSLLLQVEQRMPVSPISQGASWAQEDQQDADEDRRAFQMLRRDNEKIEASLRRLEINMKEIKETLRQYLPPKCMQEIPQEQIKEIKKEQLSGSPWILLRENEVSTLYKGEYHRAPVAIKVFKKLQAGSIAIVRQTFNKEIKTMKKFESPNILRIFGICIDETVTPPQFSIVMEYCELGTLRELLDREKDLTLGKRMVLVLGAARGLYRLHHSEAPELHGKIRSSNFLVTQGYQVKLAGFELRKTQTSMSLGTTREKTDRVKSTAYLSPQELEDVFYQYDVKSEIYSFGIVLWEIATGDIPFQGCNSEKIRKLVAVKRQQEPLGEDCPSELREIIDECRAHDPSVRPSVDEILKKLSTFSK
How it was run: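 HepG2 cells were treated 20-24 h at 37 °C with compound at 1 or 10 μM final. RIPA lysates were normalized by BCA, and 10-15 μg protein per lane was resolved by SDS-PAGE. MLKL was detected by western blot with chemiluminescence.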

MLKL [2] = target: T1, MLKL; assay: Measurement of binding affinity with MLKL receptor (competitive binding assay, Kd); set-up: made in house; host or cells: HEK 293 cell line (T7 phage in E. coli BL21-derived host is also described)
How it was run: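 Kd comes from a bead-based competition format: compound-dependent loss of DNA-tagged, HEK 293-expressed MLKL capture, measured as eluate kinase by qPCR. Final DMSO is 0.9%.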

| SMILES | Necroptosis inhibition assay (Rescue %) 1 μM (FADD−/− Jurkat cells) | Necroptosis inhibition assay (Rescue %) 10 μM (FADD−/− Jurkat cells) | Degradation assay (Degradation %) 1 μM (MLKL [1]) | Degradation assay (Degradation %) 10 μM (MLKL [1]) | Kd (MLKL [2]) | Necroptosis inhibition assay (Rescue %) 1 μM (FADD−/− Jurkat cells; FADD−/− Jurkat cells) | Necroptosis inhibition assay (Rescue %) 10 μM (FADD−/− Jurkat cells; FADD−/− Jurkat cells) | Necroptosis inhibition assay (Rescue %) 1.1 μM (FADD−/− Jurkat cells; compound 1.1 µM) |
| --- | --- | --- | --- | --- | --- | --- | --- | --- |
| Nc1ncc(-c2cnn(C3CCN(CCC4CCN(C(=O)CCc5ccc6c(c5)C(=O)N(C5CCC(=O)NC5=O)C6=O)CC4)CC3)c2)nc1C(=O)O[C@@H](C(=O)Nc1ccc(F)cc1)c1ccccc1 (stereo partly drawn) [TDH-377, (R)-2-((4-fluorophenyl)amino)-2-oxo-1-phenylethyl 3-amino-6-(1-(1-(2-(1-(3-(2-(2,6-dioxopiperidin-3-yl)-1,3-dioxoisoindolin-5-yl)propanoyl)piperidin-4-yl)ethyl)piperidin-4-yl)-1H-pyrazol-4-yl)pyrazine-2-carboxylate] | 62.50% | 27.37% | 89.95% | 82.82% | 0.61 nM | – | – | – |
| Nc1ncc(-c2cnn(C3CCN(CCCN4CCN(C(=O)CCc5ccc6c(c5)C(=O)N(C5CCC(=O)NC5=O)C6=O)CC4)CC3)c2)nc1C(=O)O[C@@H](C(=O)Nc1ccc(F)cc1)c1ccccc1 (stereo partly drawn) [TDH-383, (R)-2-((4-fluorophenyl)amino)-2-oxo-1-phenylethyl 3-amino-6-(1-(1-(3-(4-(3-(2-(2,6-dioxopiperidin-3-yl)-1,3-dioxoisoindolin-5-yl)propanoyl)piperazin-1-yl)propyl)piperidin-4-yl)-1H-pyrazol-4-yl)pyrazine-2-carboxylate] | 46.33% | 25.19% | 79.04% | 81.95% | 0.42 nM | – | – | – |
| Nc1ncc(-c2cnn(C3CCN(C(=O)C4CCN(C(=O)CNc5cccc6nnn(C7CCC(=O)NC7=O)c(=O)c56)CC4)CC3)c2)nc1C(=O)O[C@@H](C(=O)Nc1ccc(F)cc1)c1ccccc1 (stereo partly drawn) [TDH-413, (R)-2-((4-fluorophenyl)amino)-2-oxo-1-phenylethyl 3-amino-6-(1-(1-(1-((3-(2,6-dioxopiperidin-3-yl)-4-oxo-3,4-dihydrobenzo[d][1,2,3]triazin-5-yl)glycyl)piperidine-4-carbonyl)piperidin-4-yl)-1H-pyrazol-4-yl)pyrazine-2-carboxylate] | – | – | 71.41% | 57.83% | 0.92 nM | 24.79% | 18.59% | – |
| Nc1ncc(-c2cnn(C3CCN(C(=O)CCC4CCN(C(=O)CCc5cccc6c5CN(C5CCC(=O)NC5=O)C6=O)CC4)CC3)c2)nc1C(=O)O[C@@H](C(=O)Nc1ccc(F)cc1)c1ccccc1 (stereo partly drawn) [TDH-439, (R)-2-((4-fluorophenyl)amino)-2-oxo-1-phenylethyl 3-amino-6-(1-(1-(3-(1-(3-(2-(2,6-dioxopiperidin-3-yl)-1-oxoisoindolin-4-yl)propanoyl)piperidin-4-yl)propanoyl)piperidin-4-yl)-1H-pyrazol-4-yl)pyrazine-2-carboxylate] | – | – | 86.02% | 91.86% | 0.91 nM | 41.96% | 43.64% | – |
| Nc1ncc(-c2cnn(C3CCN(CC4CN(C(=O)C5CCN(c6cccc7c6C(=O)N(C6CCC(=O)NC6=O)C7=O)CC5)CCO4)CC3)c2)nc1C(=O)OC(C(=O)Nc1ccc(F)cc1)c1ccccc1 (stereo not drawn) [TDH-304, 2-((4-fluorophenyl)amino)-2-oxo-1-phenylethyl 3-amino-6-(1-(1-((4-(1-(2-(2,6-dioxopiperidin-3-yl)-1,3-dioxoisoindolin-4-yl)piperidine-4-carbonyl)morpholin-2-yl)methyl)piperidin-4-yl)-1H-pyrazol-4-yl)pyrazine-2-carboxylate] | 38.26% | 35.22% | 85.02% | 84.91% | 2.9 nM | – | – | – |
| Nc1ncc(-c2cnn(C3CCN(CCOCCNC(=O)CNc4ccc5c(c4)C(=O)N(C4CCC(=O)NC4=O)C5=O)CC3)c2)nc1C(=O)O[C@@H](C(=O)Nc1ccc(F)cc1)c1ccccc1 (stereo partly drawn) [TDH-125, (R)-2-((4-fluorophenyl)amino)-2-oxo-1-phenylethyl 3-amino-6-(1-(1-(2-(2-(2-((2-(2,6-dioxopiperidin-3-yl)-1,3-dioxoisoindolin-5-yl)amino)acetamido)ethoxy)ethyl)piperidin-4-yl)-1H-pyrazol-4-yl)pyrazine-2-carboxylate] | 21.27% | 54.55% | 30.1% | 69.02% | 3.2 nM | – | – | – |
| Nc1ncc(-c2cnn(C3CCN(C(=O)CC4CCN(C(=O)C5CCN(c6ccc7nnn(C8CCC(=O)NC8=O)c(=O)c7c6)CC5)CC4)CC3)c2)nc1C(=O)O[C@@H](C(=O)Nc1ccc(F)cc1)c1ccccc1 (stereo partly drawn) [TDH-407, (R)-2-((4-fluorophenyl)amino)-2-oxo-1-phenylethyl 3-amino-6-(1-(1-(2-(1-(1-(3-(2,6-dioxopiperidin-3-yl)-4-oxo-3,4-dihydrobenzo[d][1,2,3]triazin-6-yl)piperidine-4-carbonyl)piperidin-4-yl)acetyl)piperidin-4-yl)-1H-pyrazol-4-yl)pyrazine-2-carboxylate] | – | – | 83.70% | 79.77% | 7.5 nM | 52.02% | 42.95% | – |
| Nc1ncc(-c2ccc(N3CCN(CCOCCOCCNC(=O)C4CCN(c5ccc6c(c5)C(=O)N(C5CCC(=O)NC5=O)C6=O)CC4)CC3)nc2)nc1C(=O)OC(C(=O)Nc1ccc(F)cc1)c1ccccc1 (stereo not drawn) [TDH-258, 2-((4-fluorophenyl)amino)-2-oxo-1-phenylethyl 3-amino-6-(6-(4-(2-(2-(2-(1-(2-(2,6-dioxopiperidin-3-yl)-1,3-dioxoisoindolin-5-yl)piperidine-4-carboxamido)ethoxy)ethoxy)ethyl)piperazin-1-yl)pyridin-3-yl)pyrazine-2-carboxylate] | 33.73% | 24.69% | 13.9% | 10.67% | 78 nM | – | – | – |
| Nc1ncc(-c2cnn(C3CCN(CCC4CCN(C(=O)C5CN(c6ccc7nnn(C8CCC(=O)NC8=O)c(=O)c7c6)C5)CC4)CC3)c2)nc1C(=O)O[C@@H](C(=O)Nc1ccc(F)cc1)c1ccccc1 (stereo partly drawn) [TDH-333, (R)-2-((4-fluorophenyl)amino)-2-oxo-1-phenylethyl 3-amino-6-(1-(1-(2-(1-(1-(3-(2,6-dioxopiperidin-3-yl)-4-oxo-3,4-dihydrobenzo[d][1,2,3]triazin-6-yl)azetidine-3-carbonyl)piperidin-4-yl)ethyl)piperidin-4-yl)-1H-pyrazol-4-yl)pyrazine-2-carboxylate] | – | 36.65% | 57.66% | 71.32% | 4.1 nM | – | – | 58.92 (1.1µM) % |
